Values of other authors in patent US20210181182A1, “METHOD FOR IDENTIFICATION OF PERTURBAGENS OF PARTICULAR BIOLOGICAL PROCESSES AND CELL SYSTEMS WITHIN LIVING CELLS” (priority 2018, published 2021).
Counter-ions that a name gives are not always drawn. Marks after values point to notes of the source that are not given here.

Test system: mitochondria membrane potential
Conditions: HepG2, 1-hour incubation at concentrations below 60 μM; cited from earlier work

SMILES	MMP assay hitCall
CN1CSC(=S)N(C)C1 [Dazomet]	0
CCOC(=O)Nc1cccc(OC(=O)Nc2ccccc2)c1 [Desmedipham]	1
CCCCOC(=O)c1ccccc1C(=O)OCCCC [Dibutyl phthalate]	0*
COP(=O)(OC)OC=C(Cl)Cl [Dichlorvos]	0*
O=C(OC1CCCCC1)c1ccccc1C(=O)OC1CCCCC1 [Dicyclohexyl phthalate]	1
C(=NC1CCCCC1)=NC1CCCCC1 [Dicyclohexylcarbodiimide]	0*
CCCCCCCCCC[N+](C)(C)CCCCCCCCCC.[Cl-] [Didecyldimethylammonium chloride]	1
CCOC(=O)/C=C\C(=O)OCC [Diethyl maleate]	0*
CC1COC(Cn2cncn2)(c2ccc(Oc3ccc(Cl)cc3)cc2Cl)O1 (stereo not drawn) [Difenoconazole]	1
COc1ccc(C(=CC(=O)N2CCOCC2)c2ccc(Cl)cc2)cc1OC [Dimethomorph]	0
COC(=O)/C=C\C(=O)OC [Dimethyl maleate]	0
CCC(C)c1cc([N+](=O)[O-])cc([N+](=O)[O-])c1O (stereo not drawn) [Dinoseb]	1
c1ccc(Nc2ccccc2)cc1 [Diphenylamine]	1
C=CCOC(=O)/C=C\C(=O)OCC=C [Diprop-2-en-1-yl (2Z)-but-2-enedioate]	0
CCCCCCCCCCCC[N+](C)(C)C.[Br-] [Dodecyltrimethylammonium bromide]	1
CCCCCCCCCCCC[N+](C)(C)C.[Cl-] [Dodecyltrimethylammonium chloride]	0*
CN1CCN(c2ccccc2/C=C2\SCCN(c3ccc(Cl)c(Cl)c3)C2=O)CC1 [Elzasonan]	0
CCOC1Oc2ccc(OS(C)(=O)=O)cc2C1(C)C (stereo not drawn) [Ethofumesate]	0
CCOc1cc(C(C)(C)C)ccc1C1COC(c2c(F)cccc2F)=N1 (stereo not drawn) [Etoxazole]	1
C=CCc1ccc(O)c(OC)c1 [Eugenol]	0*
C=CCc1ccc(OC(=O)Cc2ccccc2)c(OC)c1 [Eugenyl phenylacetate]	0
CSC1=N[C@@](C)(c2ccccc2)C(=O)N1Nc1ccccc1 [Fenamidone]	1
CC(C)(C)c1ccc(CCOc2ncnc3ccccc23)cc1 [Fenazaquin]	0*
COP(=S)(OC)Oc1ccc([N+](=O)[O-])c(C)c1 [Fenitrothion]	0*
CCOC(=O)NCCOc1ccc(Oc2ccccc2)cc1 [Fenoxycarb]	0*
N#Cc1nn(-c2c(Cl)cc(C(F)(F)F)cc2Cl)c(N)c1[S+]([O-])C(F)(F)F (stereo not drawn) [Fipronil]	1

SMILES	MMP assay hitCall
CC(C)N(C(=O)COc1nnc(C(F)(F)F)s1)c1ccc(F)cc1 [Flufenacet]	0
C#CCN1C(=O)COc2cc(F)c(N3C(=O)C4=C(CCCC4)C3=O)cc21 [Flumioxazin]	0
O=C(Nc1cccc(C(F)(F)F)c1)c1cc(Br)cc(Br)c1O [Fluorosalan]	1
CO/N=C(/C1=NOCCO1)c1ccccc1Oc1ncnc(Oc2ccccc2Cl)c1F [Fluoxastrobin]	1
C[Si](Cn1cncn1)(c1ccc(F)cc1)c1ccc(F)cc1 [Flusilazole]	1
CC(C)Oc1cccc(NC(=O)c2ccccc2C(F)(F)F)c1 [Flutolanil]	1
O=C(Nc1ccccc1)Nc1ccnc(Cl)c1 [Forchlorfenuron]	1
CNC(=O)Oc1cccc(N=CN(C)C)c1 [Formetanate hydrochloride]	0
C[C@@H]1[C@@H](c2ccc(Cl)cc2)SC(=O)N1C(=O)NC1CCCCC1 [Hexythiazox]	1
CC(C)(O)C(=O)Nc1ccc([N+](=O)[O-])c(C(F)(F)F)c1 [Hydroxyflutamide]	1
N#Cc1cc(I)c(O)c(I)c1 [Ioxynil]	1
CC(C)C1CCC(Cc2ccc(Cl)cc2)C1(O)Cn1cncn1 (stereo not drawn) [Ipconazole]	1
O=c1c(O)c(-c2ccc(O)cc2)oc2cc(O)cc(O)c12 [Kaempferol]	1
CC(=O)N1CCN(c2ccc(OCC3COC(Cn4ccnc4)(c4ccc(Cl)cc4Cl)O3)cc2)CC1 (stereo not drawn) [Ketoconazole, reference compound]	1
CO/N=C(/C(=O)OC)c1ccccc1COc1ccccc1C [Kresoxim-methyl]	0*
CON(C)C(=O)Nc1ccc(Cl)c(Cl)c1 [Linuron]	1
CCOC(=O)N1CCC(=C2c3ccc(Cl)cc3CCc3cccnc32)CC1 [Loratadine, reference compound]	1
CC[C@H](C)C(=O)O[C@H]1C[C@@H](C)C=C2C=C[C@H](C)[C@H](CC[C@@H]3C[C@@H](O)CC(=O)O3)[C@H]21 [Lovastatin, reference compound]	1
CCOC(=O)CC(SP(=S)(OC)OC)C(=O)OCC (stereo not drawn) [Malathion]	0*
Cc1ccccc1C(=O)Nc1cccc(OC(C)C)c1 [Mepronil]	1
CC1(C)CCC(Cc2ccc(Cl)cc2)C1(O)Cn1cncn1 (stereo not drawn) [Metconazole]	1
C1N2CN3CN1CN(C2)C3 [Methenamine, reference compound]	0
CCCCCC#CC(=O)OC [Methyl 2-octynoate]	0
COC(=O)/C=C(\C)CCC=C(C)C [Methyl geranate]	0
CN=C=S [Methyl isothiocyanate]	0
CN(C)c1ccc(/N=N/c2ccccc2C(=O)O)cc1 [Methyl red]	0

SMILES	MMP assay hitCall
CC(=O)/C=C/c1ccccc1 [Methyl trans-styryl ketone]	0
CCc1cccc(C)c1N(C(=O)CCl)C(C)COC (stereo not drawn) [Metolachlor]	0
COC(=O)c1ccccc1S(=O)(=O)NC(=O)Nc1nc(C)nc(OC)n1 [Metsulfuron-methyl]	0
CC#C[C@]1(O)CC[C@H]2[C@@H]3CCC4=CC(=O)CCC4=C3[C@@H](c3ccc(N(C)C)cc3)C[C@@]21C [Mifepristone, reference compound]	1
COc1ccc(S(=O)(=O)N2C(=O)[C@@](c3ccccc3OC)(N3C[C@H](O)C[C@H]3C(=O)N(C)C)c3cc(Cl)ccc32)c(OC)c1 [Nelivaptan]	0
CC1(C)NC(=O)N(c2ccc([N+](=O)[O-])c(C(F)(F)F)c2)C1=O [Nilutamide, reference compound]	0*
CNc1cnn(-c2cccc(C(F)(F)F)c2)c(=O)c1Cl [Norflurazon]	0
O=C(NC(=O)c1c(F)cccc1F)Nc1ccc(OC(F)(F)C(F)OC(F)(F)F)c(Cl)c1 (stereo not drawn) [Novaluron]	0
CC(C)(C)CC(C)(C)c1ccc(O)c(-n2nc3ccccc3n2)c1 [Octrizole]	1
CC(C)Oc1cc(-n2nc(C(C)(C)C)oc2=O)c(Cl)cc1Cl [Oxadiazon]	1
CC1=C(C(=O)Nc2ccccc2)S(=O)(=O)CCO1 [Oxycarboxin]	0
CCOc1cc(Oc2ccc(C(F)(F)F)cc2Cl)ccc1[N+](=O)[O-] [Oxyfluorfen]	1
CCOP(=S)(OCC)Oc1ccc([N+](=O)[O-])cc1 [Parathion]	1
Oc1c(Cl)c(Cl)c(Cl)c(Cl)c1Cl [Pentachlorophenol]	1
Nc1ccc(/N=N/c2ccccc2)c(N)n1 [Phenazopyridine hydrochloride, reference compound]	1
CCOP(=S)(OCC)SCSCC [Phorate]	0*
CCOP(=S)(OCC)SCn1c(=O)oc2cc(Cl)ccc21 [Phosalone]	1
C#CCC1=C(C)C(OC(=O)C2C(C=C(C)C)C2(C)C)CC1=O (stereo not drawn) [Prallethrin]	1
CCCN(CCOc1c(Cl)cc(Cl)cc1Cl)C(=O)n1ccnc1 [Prochloraz]	0*
CCCSP(=O)(OCC)Oc1ccc(Br)cc1Cl (stereo not drawn) [Profenofos]	1
CCC(=O)Nc1ccc(Cl)c(Cl)c1 [Propanil]	1
C#CCOS(=O)OC1CCCCC1Oc1ccc(C(C)(C)C)cc1 (stereo not drawn) [Propargite]	1
C#CC(C)(C)NC(=O)c1cc(Cl)cc(Cl)c1 [Propyzamide]	0
COC(=O)N(OC)c1ccccc1COc1ccn(-c2ccc(Cl)cc2)n1 [Pyraclostrobin]	1
CC(C)(C)c1ccc(CSc2cnn(C(C)(C)C)c(=O)c2Cl)cc1 [Pyridaben, reference compound]	1
Cc1cc(C)nc(Nc2ccccc2)n1 [Pyrimethanil]	0

Same assay, conditions: cited from earlier work

SMILES	MMP assay hitCall
Oc1c(Cl)cc(Cl)c(Cl)c1Cc1c(O)c(Cl)cc(Cl)c1Cl [Hexachlorophene]	1
CN(C)c1ccc(N=O)cc1 [N,N-Dimethyl-4-nitrosoaniline]	0
CC(C)Nc1ccc(Nc2ccccc2)cc1 [N-Isopropyl-N′-phenyl-p-phenylenediamine]	0
